In ChEMBL document CHEMBL1132755, “First enantiospecific synthesis of a 3,4-dihydroxy-L-glutamic acid [(3S,4S)-DHGA], a new mGluR1 agonist” (Bioorg Med Chem Lett, 2000):

How the values were obtained:
[1] = target: Metabotropic glutamate receptor 4 (Homo sapiens) (UniProt Q14833); experiment: Tested for inhibition of glutamate induced stimulation of Metabotropic glutamate receptor 4 in HEK 293 cells; assay type: functional, cell-based; conditions: HEK293; concentration not given here
[2] = target: Metabotropic glutamate receptor 1 (Homo sapiens, UniProt Q13255); experiment: Effect of compound on Metabotropic glutamate receptor 1 expressed in HEK 293 cells was determined by measuring IP production relative to glutamate; assay type: functional, cell-based, HEK293
[3] = target: Metabotropic glutamate receptor 2 (Homo sapiens) (UniProt Q14416); experiment: Tested for inhibition of glutamate induced stimulation of Metabotropic glutamate receptor 2 in HEK 293ells; assay type: functional, cell-based; conditions: HEK293; concentration not given here
Sequence of Metabotropic glutamate receptor 2 (Homo sapiens) (Q14416 19-872 limits assumed): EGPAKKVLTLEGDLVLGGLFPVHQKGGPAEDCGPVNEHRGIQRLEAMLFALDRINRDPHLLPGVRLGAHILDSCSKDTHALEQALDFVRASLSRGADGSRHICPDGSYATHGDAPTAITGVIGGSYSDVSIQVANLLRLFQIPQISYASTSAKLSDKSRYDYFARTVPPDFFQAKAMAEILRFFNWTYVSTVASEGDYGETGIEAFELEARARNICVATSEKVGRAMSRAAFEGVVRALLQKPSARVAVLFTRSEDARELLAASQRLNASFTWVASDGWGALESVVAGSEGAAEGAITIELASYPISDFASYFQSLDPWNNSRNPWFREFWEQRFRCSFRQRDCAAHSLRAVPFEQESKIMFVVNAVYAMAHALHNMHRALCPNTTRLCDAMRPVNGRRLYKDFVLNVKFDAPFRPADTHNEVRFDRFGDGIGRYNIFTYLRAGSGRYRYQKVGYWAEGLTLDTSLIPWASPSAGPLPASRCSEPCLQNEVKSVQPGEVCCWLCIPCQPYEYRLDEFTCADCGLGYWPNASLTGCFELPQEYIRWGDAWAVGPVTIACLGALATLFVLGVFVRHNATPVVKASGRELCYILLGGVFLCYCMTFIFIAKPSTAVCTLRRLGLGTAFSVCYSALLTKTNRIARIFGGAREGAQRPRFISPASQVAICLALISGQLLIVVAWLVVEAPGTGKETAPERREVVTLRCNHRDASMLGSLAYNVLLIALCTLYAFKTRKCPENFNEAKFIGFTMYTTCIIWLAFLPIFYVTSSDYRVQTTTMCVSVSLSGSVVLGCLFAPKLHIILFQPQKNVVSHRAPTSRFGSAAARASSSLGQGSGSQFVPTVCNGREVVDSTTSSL

Sequence of Metabotropic glutamate receptor 4 (Homo sapiens) (Q14833 whole entry): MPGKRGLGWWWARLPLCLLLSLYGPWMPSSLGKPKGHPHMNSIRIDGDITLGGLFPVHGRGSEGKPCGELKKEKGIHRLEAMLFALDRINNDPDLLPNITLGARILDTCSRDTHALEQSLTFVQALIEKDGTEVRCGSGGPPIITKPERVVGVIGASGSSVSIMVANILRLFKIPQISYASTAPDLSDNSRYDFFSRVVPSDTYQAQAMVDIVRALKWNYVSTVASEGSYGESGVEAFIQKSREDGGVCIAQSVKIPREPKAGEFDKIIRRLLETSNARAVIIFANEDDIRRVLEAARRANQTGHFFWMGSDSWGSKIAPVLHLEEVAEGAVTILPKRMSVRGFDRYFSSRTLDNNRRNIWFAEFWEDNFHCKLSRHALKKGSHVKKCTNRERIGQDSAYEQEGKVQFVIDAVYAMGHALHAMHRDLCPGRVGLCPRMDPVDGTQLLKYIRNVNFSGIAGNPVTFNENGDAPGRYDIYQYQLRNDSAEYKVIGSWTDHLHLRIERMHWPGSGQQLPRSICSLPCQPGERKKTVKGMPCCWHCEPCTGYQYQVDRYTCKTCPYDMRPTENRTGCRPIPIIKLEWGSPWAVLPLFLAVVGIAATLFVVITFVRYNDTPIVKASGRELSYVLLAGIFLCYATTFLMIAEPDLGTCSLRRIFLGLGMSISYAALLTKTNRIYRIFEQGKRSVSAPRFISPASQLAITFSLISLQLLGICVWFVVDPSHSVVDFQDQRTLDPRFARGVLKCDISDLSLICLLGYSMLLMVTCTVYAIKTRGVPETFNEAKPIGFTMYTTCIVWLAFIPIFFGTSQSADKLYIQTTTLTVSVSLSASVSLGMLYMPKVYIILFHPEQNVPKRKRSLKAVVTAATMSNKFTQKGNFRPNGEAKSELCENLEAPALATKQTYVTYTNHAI
Sequence of Metabotropic glutamate receptor 1 (Q13255 whole entry): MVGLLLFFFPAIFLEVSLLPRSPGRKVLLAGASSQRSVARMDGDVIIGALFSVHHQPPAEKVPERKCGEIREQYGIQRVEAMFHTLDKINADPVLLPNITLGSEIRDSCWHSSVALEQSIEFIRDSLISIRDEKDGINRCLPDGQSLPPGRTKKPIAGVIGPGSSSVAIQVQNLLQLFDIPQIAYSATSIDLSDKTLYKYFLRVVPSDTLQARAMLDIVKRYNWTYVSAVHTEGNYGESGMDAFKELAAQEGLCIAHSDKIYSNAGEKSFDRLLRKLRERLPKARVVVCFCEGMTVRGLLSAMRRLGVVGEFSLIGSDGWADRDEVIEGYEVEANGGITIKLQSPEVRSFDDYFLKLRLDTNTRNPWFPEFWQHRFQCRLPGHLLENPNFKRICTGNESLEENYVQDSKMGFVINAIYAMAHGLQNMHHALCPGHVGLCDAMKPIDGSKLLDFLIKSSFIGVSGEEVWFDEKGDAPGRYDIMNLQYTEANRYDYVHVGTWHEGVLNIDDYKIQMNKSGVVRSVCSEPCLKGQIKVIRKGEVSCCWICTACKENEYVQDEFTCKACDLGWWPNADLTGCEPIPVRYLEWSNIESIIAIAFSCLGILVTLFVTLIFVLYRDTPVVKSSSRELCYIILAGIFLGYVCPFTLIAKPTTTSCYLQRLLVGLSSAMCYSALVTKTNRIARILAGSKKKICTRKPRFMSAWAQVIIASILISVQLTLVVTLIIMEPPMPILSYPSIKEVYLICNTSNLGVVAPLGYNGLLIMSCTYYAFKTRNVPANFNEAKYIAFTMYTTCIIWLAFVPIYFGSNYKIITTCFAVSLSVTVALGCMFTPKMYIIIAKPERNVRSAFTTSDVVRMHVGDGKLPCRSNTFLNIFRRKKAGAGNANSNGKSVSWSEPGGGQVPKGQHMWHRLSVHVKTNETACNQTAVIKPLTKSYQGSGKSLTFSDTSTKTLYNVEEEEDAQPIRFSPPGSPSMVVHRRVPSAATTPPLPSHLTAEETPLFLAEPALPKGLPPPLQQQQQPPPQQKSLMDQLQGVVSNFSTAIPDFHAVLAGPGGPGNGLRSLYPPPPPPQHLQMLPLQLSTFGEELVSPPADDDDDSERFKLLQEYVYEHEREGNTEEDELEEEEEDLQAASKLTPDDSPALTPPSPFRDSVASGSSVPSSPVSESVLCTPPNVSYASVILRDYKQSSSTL

Compound `N[C@H](C(=O)O)[C@H](O)[C@H](O)C(=O)O` has an inhibition [1] of 57%, an EC50 [2] of 257 µM and an inhibition [3] of 29%.
